Holding throughout (assay type): cell-based, human
The test system of assay [1] is PBMC and HUVEC+T cell receptor (TCR) ligands. Briefly: BioMAP SAg system. As to conditions: for Inhibition of biomarker readouts in the SAg system: T cell-driven Th1 vascular inflammation, concentrations of FIGS. 12-16. An excerpt: (§1) The BioMAP systems consist of human primary cell-based systems designed to model different aspects of the human body in an in vitro format. The 12 systems tested characterized the test compounds across a broad set of systems modeling various human disease states. BioMAP systems were constructed with one or more primary cell types from healthy human donors, with stimuli (such as cytokines or growth factors) added to capture relevant signaling networks that naturally occur in human tissue or pathological conditions. Vascular biology was modeled in both a Th1 (3C system) and a Th2 (4H system) inflammatory environment, as well as in a Th1 inflammatory state specific to arterial smooth muscle cells (CASM3C system). Additional systems recapitulated aspects of the systemic immune response that included monocyte-driven Th1 inflammation (LPS system) or T cell stimulation (SAg system), chronic Th1 inflammation driven by macrophage activation (IMphg system) and the T cell-dependent activation of B cells that occurs in germinal centers (BT system). The BE3C system (Th1) and the BF4T system (Th2) represented airway inflammation of the lung, while the MyoF system modeled myofibroblast-lung tissue remodeling. Lastly, skin biology was addressed in the KF3CT system modeled Th1 cutaneous inflammation and the HDF3CGF system modeled wound healing.
(§2) All cells were from a pool of multiple donors (n=2-6), commercially purchased and handled according to the recommendations of the manufacturers. Human blood derived CD14+ monocytes were differentiated into macrophages in vitro before being added to the IMphg system. Abbreviations were used as follows: human umbilical vein endothelial cells (HUVEC), peripheral blood mononuclear cells (PBMC), human neonatal dermal fibroblasts (HDFn), B cell receptor (BCR), T cell receptor (TCR) and toll-like receptor (TLR). Cell types and stimuli used in each system were as follows:
(§3) 3C system [HUVEC+(IL-1β, TNFα and IFNγ)]; 4H system [HUVEC+(IL-4 and histamine)]; LPS system [PBMC and HUVEC+LPS (TLR4 ligand)]; SAg system [PBMC and HUVEC+T cell receptor (TCR) ligands]; BT system [CD19+B cells and PBMC+(α-IgM and TCR ligands)]; BF4T system [bronchial epithelial cells and HDFn+(TNFα and IL-4)]; BE3C system [bronchial epithelial cells+(IL-1p, TNFα and IFNγ)]; CASM3C system [coronary artery smooth muscle cells+(IL-1p, TNFα and IFNγ)]; HDF3CGF system [HDFn+(IL-1β, TNFα, IFNγ, EGF, bFGF and PDGF-BB)]; KF3CT system [keratinocytes and HDFn+(IL-1β, TNFα and IFNγ)]; MyoF system [differentiated lung myofibroblasts+(TNFα and TGFβ)]; and IMphg system [HUVEC and M1 macrophages+Zymosan (TLR2 ligand)].
(§4) Systems were derived from either single cell types or co-culture systems. Adherent cell types were cultured in 96 or 384-well plates until confluence, followed by the addition of PBMC (SAg and LPS systems). The BT system consisted of CD19+B cells co-cultured with PBMC and stimulated with a BCR activator and low levels of TCR stimulation. Test agents were prepared in DMSO (final concentration <0.1%) and were added 1 hour before stimulation, and remained in culture for 24 hours or as otherwise indicated (48-hrs, MyoF system; 72-hrs, BT system (soluble readouts); 168-hrs, BT system (secreted IgG)). Each plate contained drug controls (e.g., legacy control test agent colchicine at 1.1 μM), negative controls (e.g., non-stimulated conditions) and vehicle controls (e.g., 0.1% DMSO) appropriate for each system. Direct ELISA was used to measure biomarker levels of cell-associated and cell membrane targets. Soluble factors from supernatants were quantified using either HTRF® detection, bead-based multiplex immunoassay or capture ELISA. Overt adverse effects of test agents on cell proliferation and viability (cytotoxicity) were detected by sulforhodamine B (SRB) staining, for adherent cells, and alamarBlue® reduction for cells in suspension.

In assay [2] the test system is PBMC and HUVEC+LPS (TLR4 ligand). Nature of the assay: BioMAP LPS system. As to conditions: monocyte-driven Th1 inflammation; for Inhibition of biomarker readouts in the LPS system: concentrations of FIGS. 12-14; for Increased biomarker readouts in the LPS system: tofacitinib 37-1000 nM.
From the text: as §1, §2, §3
as §4, with “suspension. […]” for “suspension.”

The test system of assay [3] is HUVEC+(IL-1β, TNFα and IFNγ). Briefly: BioMAP 3C system. As to conditions: agent alone; PF-06650833 19, 56, 170, 500 nM; tofacitinib 37, 110, 330, 1000 nM. The text has this: The BioMAP systems consist of human primary cell-based systems designed to model different aspects of the human body in an in vitro format. The 12 systems tested characterized the test compounds across a broad set of systems modeling various human disease states. BioMAP systems were constructed with one or more primary cell types from healthy human donors, with stimuli (such as cytokines or growth factors) added to capture relevant signaling networks that naturally occur in human tissue or pathological conditions. Vascular biology was modeled in both a Th1 (3C system) and a Th2 (4H system) inflammatory environment, as well as in a Th1 inflammatory state specific to arterial smooth muscle cells (CASM3C system). […]
Systems were derived from either single cell types or co-culture systems. […] Test agents were prepared in DMSO (final concentration <0.1%) and were added 1 hour before stimulation, and remained in culture for 24 hours or as otherwise indicated (48-hrs, MyoF system; 72-hrs, BT system (soluble readouts); 168-hrs, BT system (secreted IgG)). […] Soluble factors from supernatants were quantified using either HTRF® detection, bead-based multiplex immunoassay or capture ELISA. Overt adverse effects of test agents on cell proliferation and viability (cytotoxicity) were detected by sulforhodamine B (SRB) staining, for adherent cells, and alamarBlue® reduction for cells in suspension.

The source of these data is patent US20220378707A1, “1-(((2S,3S,4S)-3-ETHYL-4-FLUORO-5-OXOPYRROLIDIN-2-YL)METHOXY)-7-METHOXYISOQUINOLINE-6-CARBOXAMIDE COMBINATIONS AND ORAL DOSAGE FORMS” (Pfizer Inc., priority 2019, published 2022).

Entries after “also recorded” stand apart in the source; their conditions may differ.

Consider `CC[C@@H]1[C@H](F)C(=O)N[C@@H]1COc1nccc2cc(C(N)=O)c(OC)cc12` [PF-06650833, 1-(((2S,3S,4S)-3-Ethyl-4-fluoro-5-oxopyrrolidin-2-yl)methoxy)-7-methoxyisoquinoline-6-carboxamide], for which, in assay [1], the “Inhibition of biomarker readouts in the SAg system” value is listed as “no activity”. The “Inhibition of biomarker readouts in the LPS system” value was “primarily active across all tested concentrations; also recorded: MCP-1, VCAM-1, E-selectin, IL-8, IL-1a, sTNFa, sPGE2, CD40, CD69, M-CSF, and TF; also recorded: strongly inhibited activation responses” in assay [2] (listed as 1-(((2S,3S,4S)-3-Ethyl-4-fluoro-5-oxopyrrolidin-2-yl)methoxy)-7-methoxyisoquinol); “PGE2, TNFα, IL-1α, and MCP1; also recorded: strongly and selectively inhibited monocyte activation responses; also recorded: MCP-1, VCAM-1, CD40, E-selectin, CD69, IL-8, IL-1α, M-CSF, sPGE2, and sTNFα” in assay [2] (listed as 1-(((2S,3S,4S)-3-ethyl-4-fluoro-5-oxopyrrolidin-2-yl)methoxy)-7-methoxyisoquinol). Besides, in assay [3], the “Activity in the 3C system” value is “no activity”.

Regarding `C[C@@H]1CCN(C(=O)CC#N)C[C@@H]1N(C)c1ncnc2[nH]ccc12` [tofacitinib, 3-((3R,4R)-4-Methyl-3-(methyl(7H-pyrrolo[2,3-d]pyrimidin-4-yl)amino)piperidin-1-yl)-3-oxopropanenitrile], the “Inhibition of biomarker readouts in the SAg system” value in assay [1] is “CD38 and CD69 and modestly inhibited CD69”; in assay [1] (listed as Tofacitinib), “CD38 and CD69”. For the same molecule, the “Proliferation of T cells in the SAg system” value in assay [1] (concentrations of FIGS. 13-14) is “antiproliferative activity”. For the same molecule, the “Increased biomarker readouts in the LPS system” value was “increased levels of IL-1α, secreted PGE2 and secreted TNFα; also recorded: stimulated production of IL-1α, sPGE2 and sTNFα” in assay [2]; “IL-1α, sPEG2, and sTNFα” in assay [2] (listed as Tofacitinib). The “Activity in the 3C system” value in assay [3] is given as “no activity”.
